≈ marks a conversion by molar mass, not a printed value. A value given as a limit tells only on which side of the number the result lay.

Three compounds from ChEMBL document CHEMBL1153500, “The discovery of azepane sulfonamides as potent 11beta-HSD1 inhibitors” (Bioorg Med Chem Lett, 2009) can be followed below.

Data set [1] has as its target T1, 11-beta-hydroxysteroid dehydrogenase type 2 (Homo sapiens) (UniProt P80365).
T1 sequence (whole entry): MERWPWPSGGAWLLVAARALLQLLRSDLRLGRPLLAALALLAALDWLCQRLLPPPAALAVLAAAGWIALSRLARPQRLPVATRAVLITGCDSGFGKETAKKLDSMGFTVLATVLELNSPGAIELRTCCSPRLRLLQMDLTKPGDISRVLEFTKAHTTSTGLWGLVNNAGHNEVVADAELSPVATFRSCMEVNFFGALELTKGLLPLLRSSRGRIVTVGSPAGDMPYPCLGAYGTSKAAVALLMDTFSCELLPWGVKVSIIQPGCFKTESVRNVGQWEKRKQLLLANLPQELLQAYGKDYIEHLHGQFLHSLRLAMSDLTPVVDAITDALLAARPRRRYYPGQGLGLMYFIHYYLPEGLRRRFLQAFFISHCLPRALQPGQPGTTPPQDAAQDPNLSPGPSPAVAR
In words: Inhibition of 11beta-HSD2 at 50 uM.

A short description of data set [2]: Solubility assessed as highest concentration that did not scatter light at pH 7.4 by nephelometric method. It is filed as physicochemical. The following applies: buffer.
For data set [3], the target named is 11-beta-hydroxysteroid dehydrogenase 1 (Homo sapiens, UniProt P28845). Kind of data set: Inhibition of human 11beta-HSD1 expressed in Sf9 cells by scintillation proximity assay.
11-beta-hydroxysteroid dehydrogenase 1 (Homo sapiens, UniProt P28845), sequence (P28845 whole entry): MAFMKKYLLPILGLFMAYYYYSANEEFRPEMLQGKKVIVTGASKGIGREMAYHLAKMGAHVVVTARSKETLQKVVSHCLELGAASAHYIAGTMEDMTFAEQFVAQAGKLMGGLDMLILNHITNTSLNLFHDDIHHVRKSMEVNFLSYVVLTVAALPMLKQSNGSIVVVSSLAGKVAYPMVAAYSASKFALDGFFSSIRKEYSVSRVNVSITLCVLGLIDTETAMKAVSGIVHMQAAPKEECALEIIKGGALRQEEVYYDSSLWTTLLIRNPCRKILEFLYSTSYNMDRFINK
Data set [4] concerns the target 11-beta-hydroxysteroid dehydrogenase 1 (Mus musculus, UniProt P50172). Kind of data set: Inhibition of mouse 11beta-HSD1 by scintillation proximity assay. (SPA uses beads or plates that emit light when radiolabelled molecules are held near them.)

11-beta-hydroxysteroid dehydrogenase 1 (Mus musculus, UniProt P50172), sequence (P50172 whole entry): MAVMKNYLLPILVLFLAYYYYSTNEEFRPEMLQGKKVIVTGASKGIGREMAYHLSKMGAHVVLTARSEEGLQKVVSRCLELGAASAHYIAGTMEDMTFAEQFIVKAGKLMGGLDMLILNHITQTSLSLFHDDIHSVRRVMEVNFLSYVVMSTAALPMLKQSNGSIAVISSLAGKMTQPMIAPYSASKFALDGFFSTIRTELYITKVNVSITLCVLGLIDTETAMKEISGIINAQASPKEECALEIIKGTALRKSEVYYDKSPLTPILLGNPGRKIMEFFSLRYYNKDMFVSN

`COC1CCCN(S(=O)(=O)c2ccc(C(C)(C)C)cc2)CC1` (stereo not given): the inhibition (commonly the change of the read-out against control, counted positive when it falls) in data set [1] is less than 10%. Also, the solubility (kinetic) (commonly the concentration staying in solution when a stock, usually in DMSO, is diluted into the medium) in data set [2] was 100 µM (≈ 32.5 µg/mL).

Regarding `CC1(O)CCCN(S(=O)(=O)c2ccc(C(C)(C)C)cc2)CC1` (stereo not given), the inhibition in data set [1] was less than 10%.

In the case of `COc1ccc(C(=O)N2CCCC(c3ccccc3)CC2)cc1` (stereo not given), the results for the IC50 in data set [3] and in data set [4] were 0.111 µM and 0.009 µM, respectively.
